Test [1] deals with Full length G2019 human LRRK2 (Homo sapiens (Human), UniProt Q5S007). As to the kind of experiment: Full length G2019 human LRRK2 inhibition mass spectrometry assay. In kind it is biochemical. As to conditions: Full length Flag-LRRK2, 25 uM LRRKtide, 2 mM ATP; for IC50: read-out: Full length G2019 human LRRK2 Inhibition mass spectrometry assay (pIC50) (converted). Here is the method:
Mass Spectrometer Settings • LRRKtide Detection settings: Q1 mass 644.8 Da, Q3 mass 638.8, declustering potential 76 volts, collision energy 37 volts, CXP 34 volts • Phospho-LRRKtide Detection settings: Q1 mass 671.4 Da, Q3 mass 638.8, Declustering potential 76 volts, Collision energy 37 volts, CXP 34 volts. • A C4 cartridge was used and running buffers were: A (aqueous) 0.1% formic acid in water B (organic) 0.1% formic acid, 80% acetonitrile, 20% water • 5. Data was analysed using ActivityBase software (IDBS). A percent conversion from LRRKtide to Phospho-LRRKtide was calculated using the following formula: % conversion=(Phospho-LRRKtide product peak area/(Phospho-LRRKtide product peak area+LRRKtide substrate peak area))*100 2) Full Length G2019 Human LRRK2 Inhibition Mass Spectrometry Assay Insect Cell Cultures
Sf9 insect cells (Invitrogen Life Technologies, Carlsbad, Calif.) were maintained at 27° C. in SF 900 II SFM in 500-ml stationary flasks. The cells were maintained in exponential growth phase and subcultured twice per week. For larger volumes, cells were grown in 2-liter shaker flasks (Erlenmeyer, Corning) while being agitated with 120 rpm at 27° C. incubator shaker.
Human G2019 LRRK2 Plasmids Preparation
Primers Used for PCR Cloning:
• pHTBV-F: SEQ ID No: 1 • LRRK2 wt-F1: SEQ ID No: 2 • LRRK2 wt-R1: SEQ ID No: 3 • LRRK2 wt-F2: SEQ ID No: 4 • LRRK2 wt-R2: SEQ ID No: 5 • LRRK2 wt-F3: SEQ ID No: 6 • pHTBV-R: SEQ ID No: 7
The primers described above were used to amplify full length human LRRK2 (amino acids from 1-2527) with N terminal Flag tag from BioCat 116313 using high fidelity PCR polymerase KOD-Plus according to the manufacturer's instructions (KOD-211, TOYOBO). The PCR product was digested with BamHI and KpnI and ligated into BamHI and KpnI digested pHTBV1mcs3 (BioCat 127555). The sequence of the target fragment was confirmed by DNA sequencing. The construct BioCat141351 was generated by Novoprotein.
The G2019 full length Flag-LRRK2 coding sequence is SEQ ID No: 8.
The translated protein sequence for human G2019 full length LRRK2 flag tagged protein is SEQ ID No: 9.
Generation of the BacMam Virus
To generate the recombinant BacMam virus, SF9 cells were seeded in 6-well tissue culture dishes at 9×10^5 cells/well and allowed to attach for 20 min. Transfection procedure was followed using AESOP AP5911v2. Briefly, DH10Bac competent cells (10361-012, Invitrogen) were transformed by the genotypically normal human LRRK2 BacMam plasmid to generate the recombinant baculovirus DNA. The Sf9 insect cells were co-transfected with the mixture of recombinant baculovirus DNA and cellfectin (10362-100, Invitrogen). After 4 h of incubation at 27° C., the transfection media was replaced with Sf-900 III SFM medium containing 5% HI FBS (Ser. No. 10/100,147, Invitrogen). The cells were further incubated for 4 days. The infected cell culture medium containing the baculovirus (P0 virus stock) was collected and amplified by further infecting the Sf9 cells at multiplicity of infection (MOI) (pfu/cell) of 0.1.
Quantification of BacMam Viral Titre by BacPAKRapid Titer
The viral titre, measured as plaque forming unit (pfu)/ml was determined using BacPAK Papid Titer Kit (631406, Clontech) according to the manufacturer's protocol. The Sf9 cells seeded in 96-well plate with 3×10^5 cells per well were incubated with serial dilution of the viral stocks for 1 h at 27° C., 50 μl methyl cellulose overlay was added to each well followed by 43-47 h incubation. The cells were then fixed in 4% paraformaldehyde (PFA). After blocking the cells with diluted normal goat serum, Mouse anti-gp64 antibody was added to the cells. After 30 min incubation, the cells were washed with phosphate buffered saline containing 0.1% Triton-X100 (PBST) and incubated for another 30 min with goat anti-mouse antibody/HRP conjugate. This was followed by blue peroxidase substrate which detects the single infected cells and foci of infected cells by their dark blue color. […]

The target of test [2] is LRRK2 Ser935 phosphorylation in SH-SY5Y cells over-expressing recombinant full length LRRK2 (Homo sapiens (Human), UniProt Q5S007). As to the kind of experiment: Recombinant cellular LRRK2 AlphaScreen assay. In kind it is cell-based. As to conditions: 60 minutes, read-out: Recombinant cellular LRRK2 alphaScreen assay (pIC50) (converted). The method, boiled down: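 SH-SY5Y cells transduced with BacMam full-length LRRK2 (MOI 50, 24 h) were treated 60 min at 37° C with serial dilutions (top final 10 μM). Lysates were probed by AlphaScreen using biotinylated anti-pSer935 and total-LRRK2 antibodies; dose-response fit to a sigmoidal model.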
Chain of LRRK2 Ser935 phosphorylation in SH-SY5Y cells over-expressing recombinant full length LRRK2 (Q5S007 whole entry): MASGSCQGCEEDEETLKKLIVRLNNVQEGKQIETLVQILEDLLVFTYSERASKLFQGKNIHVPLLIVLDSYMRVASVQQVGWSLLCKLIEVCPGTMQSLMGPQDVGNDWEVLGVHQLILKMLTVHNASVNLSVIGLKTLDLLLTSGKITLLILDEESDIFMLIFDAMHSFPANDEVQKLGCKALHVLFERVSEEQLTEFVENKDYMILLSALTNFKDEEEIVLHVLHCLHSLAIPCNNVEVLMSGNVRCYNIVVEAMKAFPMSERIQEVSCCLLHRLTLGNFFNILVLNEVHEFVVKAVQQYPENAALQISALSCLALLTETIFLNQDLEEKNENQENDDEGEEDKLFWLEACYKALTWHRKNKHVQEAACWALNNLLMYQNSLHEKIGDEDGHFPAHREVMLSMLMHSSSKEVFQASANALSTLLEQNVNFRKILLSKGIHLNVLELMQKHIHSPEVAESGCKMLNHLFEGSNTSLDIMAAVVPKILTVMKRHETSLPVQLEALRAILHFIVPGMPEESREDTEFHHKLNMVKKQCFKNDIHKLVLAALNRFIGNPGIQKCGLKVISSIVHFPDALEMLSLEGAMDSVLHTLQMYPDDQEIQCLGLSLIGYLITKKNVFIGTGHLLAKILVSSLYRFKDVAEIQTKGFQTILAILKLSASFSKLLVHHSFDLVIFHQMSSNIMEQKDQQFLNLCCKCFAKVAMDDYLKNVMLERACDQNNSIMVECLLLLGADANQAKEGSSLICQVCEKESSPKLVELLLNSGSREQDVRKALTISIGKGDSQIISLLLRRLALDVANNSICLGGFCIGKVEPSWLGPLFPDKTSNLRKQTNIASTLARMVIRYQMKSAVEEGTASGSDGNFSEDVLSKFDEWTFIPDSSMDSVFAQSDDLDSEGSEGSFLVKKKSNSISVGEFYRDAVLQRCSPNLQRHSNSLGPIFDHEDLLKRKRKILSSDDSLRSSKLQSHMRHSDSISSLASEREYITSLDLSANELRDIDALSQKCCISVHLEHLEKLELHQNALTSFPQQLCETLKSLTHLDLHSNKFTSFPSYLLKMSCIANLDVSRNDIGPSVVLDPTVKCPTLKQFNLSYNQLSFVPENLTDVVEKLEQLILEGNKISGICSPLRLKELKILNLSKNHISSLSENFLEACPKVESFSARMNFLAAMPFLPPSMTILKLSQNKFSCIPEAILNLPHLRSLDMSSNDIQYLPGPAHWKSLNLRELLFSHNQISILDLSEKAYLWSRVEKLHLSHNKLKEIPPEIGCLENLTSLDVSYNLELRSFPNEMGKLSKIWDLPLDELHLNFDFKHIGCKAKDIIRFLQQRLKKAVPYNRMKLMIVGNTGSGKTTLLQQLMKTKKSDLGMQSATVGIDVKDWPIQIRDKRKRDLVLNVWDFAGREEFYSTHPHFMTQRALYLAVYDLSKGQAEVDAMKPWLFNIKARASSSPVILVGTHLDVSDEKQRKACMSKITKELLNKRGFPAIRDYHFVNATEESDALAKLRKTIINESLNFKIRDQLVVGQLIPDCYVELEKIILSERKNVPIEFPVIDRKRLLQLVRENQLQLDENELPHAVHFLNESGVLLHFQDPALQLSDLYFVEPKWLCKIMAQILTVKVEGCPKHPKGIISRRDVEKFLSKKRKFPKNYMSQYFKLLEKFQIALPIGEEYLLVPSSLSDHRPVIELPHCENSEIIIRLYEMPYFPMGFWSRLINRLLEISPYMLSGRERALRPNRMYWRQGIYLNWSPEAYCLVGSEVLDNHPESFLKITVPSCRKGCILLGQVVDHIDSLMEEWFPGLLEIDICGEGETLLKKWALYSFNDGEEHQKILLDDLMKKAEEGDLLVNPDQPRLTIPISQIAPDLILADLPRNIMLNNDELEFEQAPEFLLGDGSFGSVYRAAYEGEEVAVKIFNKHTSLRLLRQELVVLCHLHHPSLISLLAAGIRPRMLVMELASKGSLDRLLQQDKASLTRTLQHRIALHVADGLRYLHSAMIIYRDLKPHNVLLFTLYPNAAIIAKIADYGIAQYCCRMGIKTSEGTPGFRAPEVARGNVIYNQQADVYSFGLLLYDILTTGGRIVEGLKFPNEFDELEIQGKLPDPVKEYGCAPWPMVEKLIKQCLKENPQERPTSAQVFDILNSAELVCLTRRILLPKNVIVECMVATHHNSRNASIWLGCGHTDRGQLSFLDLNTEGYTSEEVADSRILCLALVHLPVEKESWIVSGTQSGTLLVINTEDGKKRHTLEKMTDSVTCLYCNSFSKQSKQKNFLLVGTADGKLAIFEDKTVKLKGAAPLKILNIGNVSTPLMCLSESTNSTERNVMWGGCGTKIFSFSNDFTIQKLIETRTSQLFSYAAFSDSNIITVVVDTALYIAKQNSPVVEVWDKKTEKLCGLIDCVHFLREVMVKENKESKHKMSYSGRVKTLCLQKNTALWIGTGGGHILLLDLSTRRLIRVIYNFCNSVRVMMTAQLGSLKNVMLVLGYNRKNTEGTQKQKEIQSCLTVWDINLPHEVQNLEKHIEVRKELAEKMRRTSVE
A general note: In Alpha technology, singlet oxygen from a donor bead excites a nearby acceptor bead.

Chain of Full length G2019 human LRRK2 (Q5S007 other isoform, or with tags, fused parts or gaps): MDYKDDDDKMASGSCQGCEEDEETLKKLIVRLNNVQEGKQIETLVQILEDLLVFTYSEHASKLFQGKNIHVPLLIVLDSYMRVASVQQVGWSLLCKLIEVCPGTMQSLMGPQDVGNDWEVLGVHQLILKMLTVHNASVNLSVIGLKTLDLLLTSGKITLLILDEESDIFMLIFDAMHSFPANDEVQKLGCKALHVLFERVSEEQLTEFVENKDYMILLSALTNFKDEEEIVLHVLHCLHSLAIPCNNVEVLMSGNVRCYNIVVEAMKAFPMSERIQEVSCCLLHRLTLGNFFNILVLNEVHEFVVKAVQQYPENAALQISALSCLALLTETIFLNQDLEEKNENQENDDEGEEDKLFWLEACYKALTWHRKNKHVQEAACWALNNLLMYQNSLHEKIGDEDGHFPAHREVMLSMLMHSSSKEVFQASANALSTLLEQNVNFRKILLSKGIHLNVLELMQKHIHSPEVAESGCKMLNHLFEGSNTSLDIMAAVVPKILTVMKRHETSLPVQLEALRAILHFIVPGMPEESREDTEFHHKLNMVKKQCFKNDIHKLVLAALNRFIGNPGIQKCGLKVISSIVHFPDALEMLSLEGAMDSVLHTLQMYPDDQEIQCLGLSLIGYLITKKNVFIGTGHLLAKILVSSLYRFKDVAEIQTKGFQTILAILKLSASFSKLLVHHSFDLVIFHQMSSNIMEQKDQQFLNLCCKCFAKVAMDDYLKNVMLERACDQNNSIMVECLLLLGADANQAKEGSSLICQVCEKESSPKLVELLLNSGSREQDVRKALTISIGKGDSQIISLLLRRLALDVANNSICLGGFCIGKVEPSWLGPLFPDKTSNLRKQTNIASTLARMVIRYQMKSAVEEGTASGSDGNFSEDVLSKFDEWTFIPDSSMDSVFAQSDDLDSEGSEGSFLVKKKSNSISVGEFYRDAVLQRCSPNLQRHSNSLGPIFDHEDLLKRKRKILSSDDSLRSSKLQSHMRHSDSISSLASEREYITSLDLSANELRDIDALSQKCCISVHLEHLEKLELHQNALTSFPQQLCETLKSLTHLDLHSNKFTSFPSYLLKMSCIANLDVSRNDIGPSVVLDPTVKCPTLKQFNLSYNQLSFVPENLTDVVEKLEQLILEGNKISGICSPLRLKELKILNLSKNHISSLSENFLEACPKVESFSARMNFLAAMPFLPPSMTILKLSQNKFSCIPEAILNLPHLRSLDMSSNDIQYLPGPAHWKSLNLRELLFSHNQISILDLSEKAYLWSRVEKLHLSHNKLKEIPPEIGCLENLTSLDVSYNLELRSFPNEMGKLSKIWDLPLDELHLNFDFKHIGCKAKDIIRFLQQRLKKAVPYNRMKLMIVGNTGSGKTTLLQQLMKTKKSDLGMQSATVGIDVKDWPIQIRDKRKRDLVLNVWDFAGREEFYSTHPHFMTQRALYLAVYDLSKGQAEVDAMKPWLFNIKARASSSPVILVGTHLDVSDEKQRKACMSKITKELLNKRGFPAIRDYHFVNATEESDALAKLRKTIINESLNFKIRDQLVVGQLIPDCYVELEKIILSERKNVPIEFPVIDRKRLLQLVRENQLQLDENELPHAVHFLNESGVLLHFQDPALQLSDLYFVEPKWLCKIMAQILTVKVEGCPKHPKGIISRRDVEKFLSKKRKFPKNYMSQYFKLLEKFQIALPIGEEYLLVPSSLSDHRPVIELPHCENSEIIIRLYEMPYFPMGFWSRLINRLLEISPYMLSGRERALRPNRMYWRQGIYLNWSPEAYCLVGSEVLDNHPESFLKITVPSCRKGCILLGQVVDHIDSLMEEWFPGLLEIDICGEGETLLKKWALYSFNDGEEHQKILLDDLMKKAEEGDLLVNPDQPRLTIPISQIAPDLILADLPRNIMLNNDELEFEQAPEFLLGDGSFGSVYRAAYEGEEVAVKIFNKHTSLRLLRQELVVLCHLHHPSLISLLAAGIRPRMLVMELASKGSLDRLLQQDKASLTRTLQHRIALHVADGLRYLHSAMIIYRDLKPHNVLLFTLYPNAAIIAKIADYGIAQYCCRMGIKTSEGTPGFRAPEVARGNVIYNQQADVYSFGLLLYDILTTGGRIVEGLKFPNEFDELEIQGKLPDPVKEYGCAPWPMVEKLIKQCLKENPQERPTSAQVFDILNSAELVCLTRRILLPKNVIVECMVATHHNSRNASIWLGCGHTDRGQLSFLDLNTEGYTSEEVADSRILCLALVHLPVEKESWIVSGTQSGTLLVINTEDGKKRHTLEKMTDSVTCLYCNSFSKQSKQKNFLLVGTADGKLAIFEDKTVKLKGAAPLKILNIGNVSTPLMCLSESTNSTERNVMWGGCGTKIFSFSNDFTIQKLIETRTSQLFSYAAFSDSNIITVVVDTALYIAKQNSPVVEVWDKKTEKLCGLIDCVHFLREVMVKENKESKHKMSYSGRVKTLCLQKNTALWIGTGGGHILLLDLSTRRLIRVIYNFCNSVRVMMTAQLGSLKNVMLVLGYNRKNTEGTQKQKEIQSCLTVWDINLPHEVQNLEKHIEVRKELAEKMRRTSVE

Turning to `Cc1nc(N2CCO[C@@H](CO)C2)cc(-n2ncc3cc(C)c(C4CCOCC4)cc32)n1` [Example E239, (R)-(4-(2-Methyl-6-(5-methyl-6-(tetrahydro-2H-pyran-4-yl)-1H-indazol-1-yl)pyrimidin-4-yl)morpholin-2-yl)methanol], the “Full length G2019 human LRRK2 Inhibition mass spectrometry assay (pIC50)” value in test [1] was determined as 7.9. In addition, the IC50 in test [2] was 158 nM.

`COc1nc(N2CCOCC2)cc(-n2ncc3cc(C)c(C4CCNCC4)cc32)n1.Cl` [Example E205, 4-(2-Methoxy-6-(5-methyl-6-(piperidin-4-yl)-1H-indazol-1-yl)pyrimidin-4-yl)morpholine]: the “Full length G2019 human LRRK2 Inhibition mass spectrometry assay (pIC50)” value in test [1] worked out at 7.7. In addition, in test [2], the IC50 was 50.1 nM.

`COc1nc(N2CC(C)(O)C2)cc(-n2ncc3cc(C)c(C4CCN(C5COC5)CC4)cc32)n1` [Example E80, 1-(2-Methoxy-6-(5-methyl-6-(1-(oxetan-3-yl)piperidin-4-yl)-1H-indazol-1-yl)pyrimidin-4-yl)-3-methylazetidin-3-ol]: the IC50 in test [1] was at most 10000 nM; in test [2] it was at most 100 nM.

With `Cc1nc(N2CCO[C@H](CO)C2)cc(-n2ncc3cc(C)c(C4CCN(C5COC5)CC4)cc32)n1` [Example E183, (S)-(4-(2-Methyl-6-(5-methyl-6-(1-(oxetan-3-yl)piperidin-4-yl)-1H-indazol-1-yl)pyrimidin-4-yl)morpholin-2-yl)methanol], the “Full length G2019 human LRRK2 Inhibition mass spectrometry assay (pIC50)” value in test [1] stood at 7.9. In addition, in test [2], the IC50 was 63.1 nM.

On to `COc1nc(N2CCO[C@@H](CO)C2)cc(-n2ncc3cc(C)c(C4CCN(C5COC5)CC4F)cc32)n1` (single isomer, unassigned) [Example E170], for which the IC50 in test [1] is 7.94 nM; in test [2] it was 5.01 nM.

Take `Cc1nc(N2CCO[C@H](CO)C2)cc(-n2ncc3cc(Cl)c(C4CCN(C5COC5)CC4)cc32)n1` [Example E208, (S)-(4-(6-(5-Chloro-6-(1-(oxetan-3-yl)piperidin-4-yl)-1H-indazol-1-yl)-2-methylpyrimidin-4-yl)morpholin-2-yl)methanol]: the “Full length G2019 human LRRK2 Inhibition mass spectrometry assay (pIC50)” value in test [1] was found to be 7.7. Also, in test [2], the IC50 was 39.8 nM.
